Reference: PubChem BioAssay (NCI)
Where “and” joins values, the source holds several entries; their conditions need not be identical. Equal values may be shown once.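 Tested at 5 concentrations; 48 h exposure; 96-well plates; endpoints linearly interpolated, else capped at highest concentration. The concentration for 50% growth inhibition is given as GI50. The concentration for full growth arrest is given as TGI.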

What follows are compounds tested on PC-3 prostate (assay: NCI tumour cell line growth inhibition, 48 h).

Which results are given for `COc1ccc2c(c1)C(=O)/C(=C/c1ccc(OCC(=O)Nc3nccs3)cc1)O2`?
GI50: 0.264 µM; TGI: 2.17 µM

For `CC(C)c1ccc(C(C)C(=O)N(CC2=C(C(C)c3ccccn3)c3ccccc3C2)C(C)C)cc1` (stereo unspecified), which GI50 is on record?
Its GI50 is 2.66 µM.

And the TGI?
Its TGI is greater than 100 µM.

Which TGI does the source give for `O[C@H]1[C@H]2c3cc4c(cc3CN3CCC(=C[C@@H]1O)[C@H]23)OCO4` here?
The TGI was 5.34 µM.

Which results are given for `O=[N+]([O-])c1cnc(Sc2ccncn2)s1`?
GI50: 2.73 µM; TGI: 17 µM

Which results are given for `O=C(Nc1ccc(I)cc1)c1cc([N+](=O)[O-])ccc1O`?
GI50: 3.42 µM; TGI: 23.4 µM

Which GI50 does the source give for `Cc1cc(=O)n2[nH]c(-c3ccc(C(C)(C)C)cc3)cc2n1` here?
The GI50 was 4.13 µM.

What about the TGI of the same compound?
Its TGI is 40.6 µM.

With `O=C(O)c1cc(C(=O)O)cc(N2C(=O)c3ccccc3C2=O)c1` as the compound, how does the TGI read?
Its TGI is greater than 100 µM.

For `CNC(=O)c1ccccc1Nc1nc(Nc2ccc(N3CCOCC3)cc2OC)ncc1Cl`, which GI50 is on record?
Its GI50 is 1.39 µM.

What about the TGI of the same compound?
Its TGI is greater than 66.9 µM.

How did the GI50 turn out when `COc1c2ccoc2c(/C=C/C=O)c2oc(-c3ccccc3)cc(=O)c12` was run?
The GI50 was 3.23 µM.

And the TGI?
Its TGI is greater than 100 µM.

What does the source list for `O=C(CN1CCN(c2cc3c(cc2F)c(=O)c(C(=O)N/N=C/c2ccccc2O)cn3C2CC2)CC1)N/N=C\c1ccccc1O`?
GI50: 0.531 µM; TGI: > 100 µM

Which GI50 does the source give for `C=C(CNCCO)[C@@H]1CC[C@]2(CO)CC[C@]3(C)[C@H](CC[C@@H]4[C@@]5(C)CCC(N)C(C)(C)[C@@H]5CC[C@]43C)[C@@H]12` (stereo partly specified) here?
Its GI50 is 2.36 µM.

What about the TGI of the same compound?
The TGI was 11.2 µM.

For `Nc1cc2nc3ccccc3sc-2cc1=O`, which GI50 is on record?
The GI50 was 1.51 µM.

And the TGI?
Its TGI is 21.8 µM.

How did the GI50 turn out when `COc1cc2nc(-c3ccc(C(F)(F)F)cc3)cc(OCCCN3CCC(O)CC3)c2cc1OC` was run?
The GI50 was 3.66 µM.

What about the TGI of the same compound?
Its TGI is 19.5 µM.

Which GI50 does the source give for `O=C1NNC(=O)c2ccccc2SSc2ccccc2C(=O)NNC(=O)c2ccccc2SSc2ccccc21` here?
Its GI50 is 24.7 µM.

And the TGI?
The TGI was 50 µM and > 100 µM.

What does the source list for `COc1cc(C(=O)/C=C/c2sc(Cl)nc2Cl)cc(OC)c1OC`?
GI50: 1.8 µM; TGI: 3.7 µM

`COc1cc2nc(C)nc(N[C@H](C)c3cc(N)cc(C(F)(F)F)c3)c2cc1O[C@H]1CCOC1` was tested. Which GI50 did it give?
Its GI50 is 10.4 µM.

And the TGI?
Its TGI is 23.4 µM.

How did the GI50 turn out when `CC1=C(C(=O)Nc2ccc(F)c(Cl)c2)C(c2ccc(Cl)cc2)NC(=O)N1` (stereo unspecified) was run?
Its GI50 is 15.1 µM.

And the TGI?
The TGI was 31.9 µM.

With `Fc1ccc(Nc2ncnc3ccc(-c4cnc5[nH]ccc5c4)cc23)cc1Cl` as the compound, how does the GI50 read?
The GI50 was 3.54 µM.

What about the TGI of the same compound?
The TGI was 27.3 µM.

Which GI50 does the source give for `Oc1ccc(Cl)cc1-c1cc(-c2ccccc2Cl)[nH]n1` here?
The GI50 was 3.02 µM.

And the TGI?
The TGI was greater than 100 µM.

`CN(C)CCCNC1=C(Cl)C(=O)c2ccccc2C1=O` was tested. Which GI50 did it give?
The GI50 was 3.12 µM.

And the TGI?
Its TGI is 13.2 µM.

Which results are given for `O=C(Nc1ccc(F)cc1F)c1cc(I)ccc1O`?
GI50: 2.53 µM; TGI: 8.73 µM

Which results are given for `CCOc1ccccc1-n1c(CN2CCN(C(=O)COc3ccc(CNCCCCCCN4C5CCCC4CC(OC(=O)Nc4cc(C)ccc4OC)C5)cc3)CC2)nc2ccccc2c1=O` (stereo unspecified)?
GI50: 1.59 µM; TGI: 3.61 µM

Which results are given for `COc1ccc(C2=CSc3cc(Cl)c(C)cc3S(=O)(=O)N2C(C)=O)cc1`?
GI50: 21.8 µM; TGI: 82.1 µM

`CC[C@@]12CCCN3CC[C@]4(c5cccc(OC)c5N(C(C)=O)[C@@H]4CC1)[C@H]32` was tested. Which TGI did it give?
Its TGI is greater than 100 µM.

`CC(=O)[O][Hg][c]1c(N)c(C)cc(C)c1F` was tested. Which GI50 did it give?
Its GI50 is 2.03 µM.

What about the TGI of the same compound?
The TGI was 6.61 µM.

Which results are given for `CSc1ccccc1C#C/C=C\C#Cc1ccccc1N1CCCC1=O`?
GI50: > 50 µM; TGI: > 50 µM

`NC1CCC(Nc2nc(NCc3ccc(-c4ccco4)nc3)c3ncn(C4CCCC4)c3n2)CC1` (stereo unspecified) was tested. Which GI50 did it give?
Its GI50 is 0.0307 µM.

What about the TGI of the same compound?
Its TGI is 0.206 µM and 1.69 µM.

`O=C(CCl)N1c2ccccc2Oc2ccc3ccccc3c21` was tested. Which GI50 did it give?
The GI50 was 1.72 µM.

And the TGI?
Its TGI is 3.62 µM.

Which results are given for `CCCCCCCCSC1=CC(=O)c2nc3ccccc3c3ccnc1c23`?
GI50: 77.9 µM; TGI: > 100 µM

Which TGI does the source give for `Cc1ccc(-c2nnc(-c3ccc4ccccc4c3)o2)cc1` here?
The TGI was greater than 100 µM.

Which results are given for `COc1ccc(-c2cc(-c3ccc(Nc4nc(Nc5ccccc5)nc(Nc5ccc(Cl)cc5)n4)cc3)nc(N)c2C#N)cc1`?
GI50: 1.13 µM; TGI: 7.94 µM

With `O=c1n(CC2CO2)c(=O)n(CC2CO2)n1CC1CO1` (stereo unspecified) as the compound, how does the GI50 read?
The GI50 was 29.2 µM.

And the TGI?
Its TGI is greater than 100 µM.

How did the TGI turn out when `c1cc2c(cc1NC1=NCCO1)CCC2` was run?
The TGI was greater than 10 µM.

The compounds below were run on M19-MEL melanoma (assay: NCI tumour cell line growth inhibition, 48 h).

Which TGI does the source give for `COC(=O)[C@@]12C3=NO[C@]1(C(=O)OC)C(O[Si](C)(C)C(C)(C)C)[C@H]1OC(C)(C)O[C@H]1[C@@H]2C(OCc1ccccc1)CC3` (stereo partly specified) here?
The TGI was greater than 100 µM.

For `CCOC(=O)C1=C(C)CC2C(=O)OC(=O)C2C1(C)C` (stereo unspecified), which TGI is on record?
Its TGI is greater than 100 µM.

These compounds were tested on NCI/ADR-RES ovarian (assay: NCI tumour cell line growth inhibition, 48 h).

What does the source list for `NC(CSC(c1ccccc1)(c1ccccc1)c1ccc2c(c1)OCO2)C(=O)O` (stereo unspecified)?
GI50: 4.12 µM; TGI: 26.8 µM

How did the GI50 turn out when `O=C(NCCNc1nccc(-c2c(-c3cccc(O)c3)nc3sccn23)n1)c1ccccc1O` was run?
Its GI50 is 6.64 µM.

What about the TGI of the same compound?
The TGI was 70.1 µM.

How did the GI50 turn out when `CCCCCCCC(=O)SCC/C=C/[C@@H]1CC(=O)NCc2cccc(n2)C2=N[C@@](C)(CS2)C(=O)N[C@@H](C(C)C)C(=O)N1` was run?
Its GI50 is 31.7 µM.

And the TGI?
The TGI was greater than 33.3 µM.

How did the GI50 turn out when `C[C@@H](CS(C)(=O)=O)Nc1ncc2cc(Oc3ccc(F)cc3F)c(=O)n(C)c2n1` was run?
The GI50 was greater than 25 µM.

And the TGI?
Its TGI is greater than 25 µM.

Which GI50 does the source give for `COc1cc2c(c(OC)c1O)C(=O)C(OC)C(c1ccc(O)c(O)c1)O2` (stereo unspecified) here?
Its GI50 is 0.203 µM.

What about the TGI of the same compound?
Its TGI is greater than 100 µM.

Which GI50 does the source give for `Cn1ccnc1C(=O)/C=C/c1ccc(CC(=O)Nc2ccc(Br)cc2)cc1` here?
The GI50 was 5.08 µM.

And the TGI?
Its TGI is greater than 16.7 µM.

`CCOC(=O)Nc1nc2ccc(OCC)cc2s1` was tested. Which GI50 did it give?
The GI50 was 7.39 µM.

And the TGI?
Its TGI is greater than 100 µM.

How did the TGI turn out when `COC(=O)[C@@H](C)C[C@H](Cc1ccc(F)cc1)NC(=O)c1csc([C@@H](C[C@H](C(C)C)N(C)C(=O)[C@@H](NC(=O)[C@H]2CCCCN2C)C(C)C)OC(C)=O)n1` was run?
The TGI was greater than 16.7 µM.

Which GI50 does the source give for `COc1ccc2c(c1)C(=O)/C(=C/c1ccc(OCC(=O)Nc3nccs3)cc1)O2` here?
Its GI50 is 27.3 µM.

What about the TGI of the same compound?
The TGI was greater than 100 µM.

What does the source list for `Cc1cnc(NC(=O)C(Cc2ccccc2)NC(=O)c2ccccc2)s1` (stereo unspecified)?
GI50: 4.49 µM; TGI: 69.2 µM

Which results are given for `CC(C)c1ccc(C(C)C(=O)N(CC2=C(C(C)c3ccccn3)c3ccccc3C2)C(C)C)cc1` (stereo unspecified)?
GI50: 2.67 µM; TGI: 19.2 µM

`O[C@H]1[C@H]2c3cc4c(cc3CN3CCC(=C[C@@H]1O)[C@H]23)OCO4` was tested. Which TGI did it give?
Its TGI is 10.7 µM.

Which results are given for `O=[N+]([O-])c1cnc(Sc2ccncn2)s1`?
GI50: 11.3 µM; TGI: 38.3 µM

For `O=C(Nc1ccc(I)cc1)c1cc([N+](=O)[O-])ccc1O`, which GI50 is on record?
Its GI50 is 5.85 µM.

What about the TGI of the same compound?
Its TGI is greater than 100 µM.

With `Cc1cc(=O)n2[nH]c(-c3ccc(C(C)(C)C)cc3)cc2n1` as the compound, how does the GI50 read?
The GI50 was 15.9 µM.

And the TGI?
Its TGI is greater than 100 µM.

Which TGI does the source give for `O=C(O)c1cc(C(=O)O)cc(N2C(=O)c3ccccc3C2=O)c1` here?
The TGI was greater than 100 µM.

How did the GI50 turn out when `CNC(=O)c1ccccc1Nc1nc(Nc2ccc(N3CCOCC3)cc2OC)ncc1Cl` was run?
Its GI50 is 1.11 µM.

And the TGI?
The TGI was greater than 50.7 µM.

Which GI50 does the source give for `COc1c2ccoc2c(/C=C/C=O)c2oc(-c3ccccc3)cc(=O)c12` here?
Its GI50 is 3.01 µM.

And the TGI?
The TGI was greater than 100 µM.
